Data: patent publication US5013756A, “Catechol derivatives, a process of preparation thereof, and therapeutical compositions containing the same” (priority 1985, dated 1991)
One block for each compound: values may come before it.

Legend:
[1] = target: T1, cyclooxygenase (human platelets microsomes) (Homo sapiens, UniProt P23219); experiment: Cycloxygenase inhibition in human platelets microsomes; format: biochemical; settings: cyclooxygenase (PGE2/TxB2), pH 7.9, 37° C.
T1 construct: human platelets microsomes; from tissue; host or cells: human platelet microsomes (microsomal powder)
T1 sequence (P23219 24-599): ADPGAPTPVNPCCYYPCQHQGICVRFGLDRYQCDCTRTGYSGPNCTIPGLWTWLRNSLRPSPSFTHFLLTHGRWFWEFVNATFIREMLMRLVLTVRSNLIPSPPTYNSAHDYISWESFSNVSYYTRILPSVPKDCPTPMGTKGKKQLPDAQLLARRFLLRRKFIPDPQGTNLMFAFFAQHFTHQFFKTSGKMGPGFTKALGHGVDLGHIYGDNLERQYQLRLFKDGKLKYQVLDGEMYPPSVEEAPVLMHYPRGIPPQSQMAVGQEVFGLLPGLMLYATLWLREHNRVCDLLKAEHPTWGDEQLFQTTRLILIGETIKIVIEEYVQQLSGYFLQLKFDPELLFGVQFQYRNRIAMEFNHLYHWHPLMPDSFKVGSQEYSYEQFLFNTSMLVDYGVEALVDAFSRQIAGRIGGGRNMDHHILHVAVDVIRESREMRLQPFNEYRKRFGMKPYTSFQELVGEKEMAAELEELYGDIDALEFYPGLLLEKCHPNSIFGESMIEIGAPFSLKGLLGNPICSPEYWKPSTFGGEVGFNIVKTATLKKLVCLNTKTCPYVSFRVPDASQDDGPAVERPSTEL
Procedure: The enzymatic assay was carried out in silanized glassware according to the procedure of P. Ho, P. Walters and H, Sullivan (Prostaglandins 12, 951 1976). The reaction mixture containing 50 mM Tris HCl buffer, pH 7.9, 5mM 2-Tryptophan, […] methemoglobin, 0.2 mg of microsomal powder, and the test compound in a total volume of 0.2 ml was incubated at 37° C. for 5 minutes before the addition of 10 μl of 20 μM^14 C arachidonic acid (0.08 μCI). After 5 minute incubation, the reaction was terminated by the addition of 10 μl of 1M citric acid.
The mixture was extracted four times with 0.5 ml of anhydrous diethyl ether and dried with sodium sulphate. The residue was resuspended in approximately 40 μl of ether and submitted to chromatography on silica gel plates. The elution system consisted of diethyl ether/methanol/acetic acid (90:1:2). The RF values were measured relative to arachidonic acid. Thin layer chromatography plates (TLC) were exposed on LKB ultrafilm for about 24 hours. Partial identification of the spots were carried out by running standards (PGA2, PGB2, PGE2, PGF2c, PXB2, arachidonic acid) in the same solvent system. Quantitative results were obtained by scanning the developed film with a transmission densitometer (EC Apparatus 910) interfaced with a Hewlett Packard 3390A integrator.
The activity of the substances of the cyclooxygenase is quantified by the 2 spots corresponding to PGE2 and TxB2 (ratio PGE2 /TxB2).

[2] = target: xanthine oxidase (Bos taurus, UniProt P80457); experiment: In vitro screening of compounds as potential inhibitors of xanthine oxidase; format: biochemical; settings: xanthine oxidase 0.01 units/ml, xanthine 5.10^-5 M, pH 7.4
Chain of xanthine oxidase (P80457 whole entry): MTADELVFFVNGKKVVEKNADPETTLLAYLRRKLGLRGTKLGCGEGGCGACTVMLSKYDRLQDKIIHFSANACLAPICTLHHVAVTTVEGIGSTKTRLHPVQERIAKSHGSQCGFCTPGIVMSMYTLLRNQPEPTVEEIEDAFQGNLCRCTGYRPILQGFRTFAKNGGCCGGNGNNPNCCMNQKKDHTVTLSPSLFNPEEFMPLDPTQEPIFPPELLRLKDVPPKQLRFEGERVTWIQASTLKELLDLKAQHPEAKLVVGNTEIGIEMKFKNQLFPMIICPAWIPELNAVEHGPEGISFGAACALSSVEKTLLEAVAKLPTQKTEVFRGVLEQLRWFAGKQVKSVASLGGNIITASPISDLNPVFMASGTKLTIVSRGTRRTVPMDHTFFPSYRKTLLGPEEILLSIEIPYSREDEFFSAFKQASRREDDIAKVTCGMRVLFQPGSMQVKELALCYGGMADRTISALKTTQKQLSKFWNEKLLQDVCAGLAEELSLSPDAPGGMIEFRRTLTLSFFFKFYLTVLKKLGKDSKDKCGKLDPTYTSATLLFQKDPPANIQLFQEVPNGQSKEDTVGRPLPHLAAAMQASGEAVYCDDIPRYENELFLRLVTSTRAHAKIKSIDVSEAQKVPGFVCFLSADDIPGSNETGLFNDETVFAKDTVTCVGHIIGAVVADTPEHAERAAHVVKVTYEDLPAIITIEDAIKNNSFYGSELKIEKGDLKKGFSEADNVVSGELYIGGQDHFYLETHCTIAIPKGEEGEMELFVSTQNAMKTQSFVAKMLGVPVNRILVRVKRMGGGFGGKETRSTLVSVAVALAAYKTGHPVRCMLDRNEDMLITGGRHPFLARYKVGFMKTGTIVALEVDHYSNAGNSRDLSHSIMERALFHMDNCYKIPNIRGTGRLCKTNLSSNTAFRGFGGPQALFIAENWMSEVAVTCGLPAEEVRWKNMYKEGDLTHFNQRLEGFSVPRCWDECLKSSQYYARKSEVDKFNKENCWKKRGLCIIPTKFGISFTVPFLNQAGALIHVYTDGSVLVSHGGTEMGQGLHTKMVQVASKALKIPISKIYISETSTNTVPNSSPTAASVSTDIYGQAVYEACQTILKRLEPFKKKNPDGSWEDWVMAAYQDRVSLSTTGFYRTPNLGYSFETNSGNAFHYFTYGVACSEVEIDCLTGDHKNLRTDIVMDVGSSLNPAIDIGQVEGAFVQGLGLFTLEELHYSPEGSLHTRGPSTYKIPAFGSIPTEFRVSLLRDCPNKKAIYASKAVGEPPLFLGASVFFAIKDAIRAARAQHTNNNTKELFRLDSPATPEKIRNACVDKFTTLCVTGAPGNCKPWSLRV
Description: A unit of activity was defined as a change of 0.001 units/minute.

[3] = target: T2, 5-lipoxygenase (human leucocytes) (Homo sapiens, UniProt P09917); experiment: Experiment No. 1: inhibition of 5-lipoxygenase in human leucocytes stimulated by ionophore (5-HETE, LTB4); format: cell-based; settings: Experiment No. 1, 5-HETE, ionophore A23187 alone
T2 construct: human leucocytic lipoxygenase; endogenous in cells; host or cells: human (polynuclear) leucocytes
T2 sequence (P09917 1-674): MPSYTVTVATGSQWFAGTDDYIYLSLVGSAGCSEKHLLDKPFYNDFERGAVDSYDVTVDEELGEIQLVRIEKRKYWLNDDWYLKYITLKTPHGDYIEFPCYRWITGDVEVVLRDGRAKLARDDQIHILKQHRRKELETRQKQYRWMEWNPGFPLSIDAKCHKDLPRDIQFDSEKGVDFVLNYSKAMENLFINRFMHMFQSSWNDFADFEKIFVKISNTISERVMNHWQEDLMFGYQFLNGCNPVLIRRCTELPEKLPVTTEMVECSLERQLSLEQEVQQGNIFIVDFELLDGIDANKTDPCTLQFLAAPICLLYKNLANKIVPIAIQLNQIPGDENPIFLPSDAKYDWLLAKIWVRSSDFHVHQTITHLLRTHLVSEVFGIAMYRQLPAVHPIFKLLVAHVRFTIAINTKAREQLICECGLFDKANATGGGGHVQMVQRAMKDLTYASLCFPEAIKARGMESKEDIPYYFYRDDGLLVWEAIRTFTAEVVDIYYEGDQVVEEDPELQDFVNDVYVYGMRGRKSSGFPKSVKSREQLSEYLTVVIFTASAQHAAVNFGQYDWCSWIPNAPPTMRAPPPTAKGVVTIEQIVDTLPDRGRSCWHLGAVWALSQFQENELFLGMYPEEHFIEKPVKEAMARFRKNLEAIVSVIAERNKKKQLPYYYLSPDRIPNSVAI
Procedure: (§1) (a) Inhibition on 5- and 12- lipoxygenases human polynuclear
(§2) Protocol for experiment No. 1:
(§3) 2. Stimulation with 1 μg ionophore (A23187)/ml for 4 minutes.
(§4) 3. Stopping of the incubation with 1 volume of methanol.
(§5) 4. Analysis by RP-HPLC, colomn C18, 5 μm.
(§6) 5. Measurement of the height of the peaks and comparison with the internal standard (PGB2).

[4] = target: T3, 12-lipoxygenase (human leucocytes) (Homo sapiens, UniProt P18054); experiment: Experiment No. 1: inhibition of 12-lipoxygenase in human leucocytes stimulated by ionophore (12-HETE); format: cell-based; settings: Experiment No. 1, 12-HETE, ionophore A23187 alone
T3 construct: human leucocytic lipoxygenase; endogenous in cells; host or cells: human (polynuclear) leucocytes
T3 sequence (P18054 1-663): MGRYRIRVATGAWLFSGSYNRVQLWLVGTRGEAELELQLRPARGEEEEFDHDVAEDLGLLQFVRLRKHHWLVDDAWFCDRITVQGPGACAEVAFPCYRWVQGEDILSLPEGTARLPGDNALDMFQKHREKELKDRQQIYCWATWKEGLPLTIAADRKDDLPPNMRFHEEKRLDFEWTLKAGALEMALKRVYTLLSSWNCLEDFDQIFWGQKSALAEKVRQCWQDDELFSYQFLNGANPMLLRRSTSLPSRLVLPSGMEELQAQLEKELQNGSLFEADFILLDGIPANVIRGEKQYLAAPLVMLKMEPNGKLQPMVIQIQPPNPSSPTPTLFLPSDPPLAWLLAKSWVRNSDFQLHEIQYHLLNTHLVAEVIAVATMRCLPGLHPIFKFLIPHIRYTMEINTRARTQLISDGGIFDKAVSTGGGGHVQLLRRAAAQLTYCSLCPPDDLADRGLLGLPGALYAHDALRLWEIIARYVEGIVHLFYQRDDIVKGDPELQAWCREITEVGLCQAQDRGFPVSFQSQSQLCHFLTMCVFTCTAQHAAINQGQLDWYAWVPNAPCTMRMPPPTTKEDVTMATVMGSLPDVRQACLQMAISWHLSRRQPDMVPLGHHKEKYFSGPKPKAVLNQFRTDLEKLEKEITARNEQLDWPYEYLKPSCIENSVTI
Procedure: as §1, §2, §3, §4, §5, §6

[5] = tested on: HHT (human leucocytes); experiment: Experiment No. 2: HHT formation in human leucocytes stimulated by ionophore and arachidonic acid; format: cell-based; settings: Leucocyte, ionophore A23187 and arachidonic acid
Procedure: (§7) (b) Inhibition on 5-, 12- and 15- lipoxygenases human polynuclear
(§8) Protocol for experiment No. 2:
(§9) 2. Stimulation with 10 μg of arachidonic acid and 1 μg of ionophore (A23187)/ml for 4 minutes.
(§10) 3. Stopping of the incubation with 1 volume of methanol and analysis by RP-HPLC.
(§11) 4. Measurement of the height of the peaks and comparison with the internal standard (PGB2).

[6] = target: T2, 5-lipoxygenase (human leucocytes); experiment: Experiment No. 2: inhibition of 5-lipoxygenase in human leucocytes stimulated by ionophore and arachidonic acid (5-HETE, LTB4); format: cell-based
Procedure: as §7, §8, §9, §10, §11
(§12) It will be noted that in experiment No. 1, the leucocytes have been stimulated by the ionophore alone whereas in experiment No. 2, the cells have been stimulated with ionophore and arachidonic acid.

[7] = target: T4, 15-lipoxygenase (human leucocytes) (Homo sapiens, UniProt P16050); experiment: Experiment No. 2: inhibition of 15-lipoxygenase in human leucocytes stimulated by ionophore and arachidonic acid (15-HETE); format: cell-based; settings: Experiment No. 2, 15-HETE, ionophore A23187 and arachidonic acid
T4 construct: endogenous in cells; host or cells: human (polynuclear) leucocytes
T4 sequence (P16050 1-662): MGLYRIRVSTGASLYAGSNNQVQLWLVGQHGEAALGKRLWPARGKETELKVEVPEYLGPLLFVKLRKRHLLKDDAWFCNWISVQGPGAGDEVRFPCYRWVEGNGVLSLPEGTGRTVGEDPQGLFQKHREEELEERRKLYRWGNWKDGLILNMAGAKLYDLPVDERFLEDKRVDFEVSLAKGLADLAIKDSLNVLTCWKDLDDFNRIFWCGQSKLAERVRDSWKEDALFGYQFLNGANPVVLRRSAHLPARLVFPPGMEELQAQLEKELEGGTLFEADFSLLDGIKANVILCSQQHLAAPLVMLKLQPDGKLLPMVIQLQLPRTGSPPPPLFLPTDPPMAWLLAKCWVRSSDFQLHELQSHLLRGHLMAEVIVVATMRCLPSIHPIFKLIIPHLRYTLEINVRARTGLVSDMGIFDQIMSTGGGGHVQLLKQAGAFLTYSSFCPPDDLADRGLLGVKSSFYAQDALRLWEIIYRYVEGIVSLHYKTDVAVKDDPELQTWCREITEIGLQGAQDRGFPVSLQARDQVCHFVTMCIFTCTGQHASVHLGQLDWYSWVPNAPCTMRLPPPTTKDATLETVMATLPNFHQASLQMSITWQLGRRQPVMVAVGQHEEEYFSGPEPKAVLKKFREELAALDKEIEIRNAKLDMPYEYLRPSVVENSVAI
Procedure: as §7, §8, §9, §10, §11, §12

[8] = target: T3, 12-lipoxygenase (human leucocytes); experiment: Experiment No. 2: inhibition of 12-lipoxygenase in human leucocytes stimulated by ionophore and arachidonic acid (12-HETE); format: cell-based; settings: Experiment No. 2, 12-HETE, ionophore A23187 and arachidonic acid
Procedure: as §7, §8, §9, §10, §11, §12

[9] = tested on: guinea pig ileum; settings: histamine relative to LTC 4, molar basis; cited from earlier work
[10] = Experiment No. 2, 5-HETE, ionophore A23187 and arachidonic acid, read-out: IC50 5-HETE
[11] = Experiment No. 2, LTB4, ionophore A23187 and arachidonic acid, read-out: IC50 LTB4 (converted)

SMILES: CC1CCC(C(C)C)C(Sc2ccc(O)c(O)c2)C1 (centres unmarked) [drawing 22]
IC50 [1]: 16.8 µM

SMILES: Oc1ccc(S)cc1O [drawing 27]
IC50 [2]: 237 µM

SMILES: Oc1ccc(S)cc1O [drawing 31]
IC50 [3]: 2 µM
IC50 [4]: 2 µM

SMILES: Oc1ccc(S)cc1O [drawing 32]
IC50 [5]: 20 µM
IC50 [6, 10]: 1 µM
IC50 [6, 11]: 3 µM
IC50 [7]: 50 µM

SMILES: NCCc1c[nH]cn1 [histamine]
times less active than LTC 4 on a molar basis [9]: 200 times

Results, then the compound that gave them:

IC50 [1]: 3.46 µM
SMILES: CCCCCCC(C)Sc1ccc(O)c(O)c1 (centres unmarked) [drawing 23]

IC50 [2]: 511 µM
SMILES: CCC(C)CSc1ccc(O)c(O)c1 (centres unmarked) [drawing 28]

IC50 [2]: 557 µM
SMILES: CCCCCCC(C)Sc1ccc(O)c(O)c1 (centres unmarked) [drawing 29]

IC50 [3]: 1 µM
IC50 [4]: 1 µM
SMILES: CCC(C)CSc1ccc(O)c(O)c1 (centres unmarked) [drawing 30]

IC50 [5]: 50 µM
IC50 [6, 11]: 3 µM
IC50 [7]: 10 µM
IC50 [8]: 10 µM
SMILES: CCC(C)CSc1ccc(O)c(O)c1 (centres unmarked) [drawing 33]

IC50 [5]: 2 µM
IC50 [6, 10]: 1 µM
IC50 [6, 11]: 1 µM
IC50 [7]: 10 µM
IC50 [8]: 2 µM
SMILES: CCCCCCC(C)Sc1ccc(O)c(O)c1 (centres unmarked) [drawing 34]
